Data as given in BindingDB's records for doi:10.1021/acs.jmedchem.1c01473 (Chapman University School of Pharmacy, 2022).

Target: Small conductance calcium-activated potassium channel protein 2 (Rattus norvegicus, UniProt P70604)
Assay: Potentiation of rat KCa2.2a expressed in HEK293 cells assessed as increase in calcium response at -90 mV holding potential measured at 1 to 2 days by patch clamp electrophysiology

Chain of Small conductance calcium-activated potassium channel protein 2 (P70604 whole entry): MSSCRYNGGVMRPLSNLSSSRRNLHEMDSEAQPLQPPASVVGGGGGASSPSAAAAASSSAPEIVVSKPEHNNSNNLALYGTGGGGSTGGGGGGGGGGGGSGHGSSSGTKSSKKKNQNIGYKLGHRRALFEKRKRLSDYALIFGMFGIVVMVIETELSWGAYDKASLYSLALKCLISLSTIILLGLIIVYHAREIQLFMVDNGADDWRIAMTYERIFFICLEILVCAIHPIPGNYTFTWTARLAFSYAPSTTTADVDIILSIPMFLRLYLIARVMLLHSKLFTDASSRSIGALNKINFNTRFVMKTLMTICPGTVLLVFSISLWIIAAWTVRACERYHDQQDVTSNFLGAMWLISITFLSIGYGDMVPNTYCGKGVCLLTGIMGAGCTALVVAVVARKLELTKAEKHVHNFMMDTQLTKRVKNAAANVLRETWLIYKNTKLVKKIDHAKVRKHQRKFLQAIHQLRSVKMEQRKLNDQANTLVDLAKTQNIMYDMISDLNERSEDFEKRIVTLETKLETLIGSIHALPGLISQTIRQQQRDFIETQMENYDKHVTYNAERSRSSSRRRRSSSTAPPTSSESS

Row | EC50 | SMILES
1 | 110 nM | Cc1cc(Nc2ccc(F)c(Cl)c2)nc(-n2nc(C)cc2C)n1
2 | 91 nM | Cc1cc(Nc2cc(Cl)ccc2F)nc(-n2nc(C)cc2C)n1
